The text below walks through data of patent publication US4080381A, “Water soluble tertiary amine boranes” (Mine Safety Appliances Company, priority 1976, dated 1978).

Data set [1] can be described thus: water solubility of the amine boranes. Type of data set: physicochemical. The protocol:
Two Hundred milliliters of distilled dimethylsulfide (DMS) and 122.5 g (523.5 mmol) of CH3 O(C2 H4 O)3 C2 H4 N(CH3)2 were added to a one liter three necked flask equipped with a magnetic stirring bar, a thermometer and a 250 ml pressure equalizing dropping funnel. 41.4 grams (523.5 mmol) of dimethylsulfide borane (DMSB) was added to the funnel. The DMSB was added dropwise over the next hour while maintaining the reaction vessel temperature between 7°-15° C with ice water cooling. After the reaction was complete, the DMS solvent was removed under vacuum.
(1) 62.0 g (530 mmol) of CH3 CH2 OC2 H4 N(CH3)2 and 41.7 g (530 mmol) of DMSB were reacted in the same manner as example 1.
33.7 g (229.2 mmol) of CH3 OC2 H4 OC2 H4 N(CH3)2 and 18.1 g (230 mmol) of DMSB were reacted in the same manner as example (1). The resulting liquid amine borane has an approximate water solubility of 200 g/l of solution.
113.2 g (1099 mmol) of CH3 OC2 H4 N(CH3)2 and 87.3 g (1099 mmol) DMSB were reacted in the same manner as example 1. […] Inert solvents, such as hydrocarbon or ether solvents, can be used partially or wholly in place of the DMS. Temperature, pressure and reaction proportions are not critical, although it is generally most convenient to use stoichimetric proportions at atmospheric pressure and room temperature or below.

Data set [2] is described as follows: electroless gold plating: reduction of gold salt solution on palladium chloride activated nickel plate. Particulars: mixed with KAuCl4 solution, pH 12.5. As for the experimental part:
The amine boranes of this invention are useful as reducing agents in aqueous solutions. For example, solutions of gold salts are reduced by the water soluble amine boranes to plate gold on a catalytically active surface contacted with the solution, as is more fully described in the above referenced co pending application. To illustrate, the pH of one hundred ml of a 3.0 g/l solution of KAuCl4 was raised to 12.5 by the addition of NaOH. In a separate beaker, the pH of 100 ml of a 2.00g/l solution of CH3 OCH2 CH2 N(CH3)2 :BH3 was also raised to 12.5 by the addtion of NaOH. […] A palladium chloride activated substrate of nickel plate was immersed in the stirred bath for one hour at room temperature.

Values after ≈ are worked out from the molar mass of the structure shown.

`[BH3-][N+](C)(C)CCOCC` [Example 2] returned a solubility in water in data set [1] (in water at 25° C) of 17 mg/mL (≈ 130 mM).
Take `[BH3-][N+](C)(C)CCOC` [Example 4]: in data set [1] (in water), the “limiting solubility in water” value is 38 g/l of solution. The “appearance and stability of mixed plating solution” value in data set [2] was “clear and stable”.
Regarding `[BH3-][N+](C)(C)CCOCCOC` [Example 3], the approximate water solubility in data set [1] (in water) was ~200 g/l of solution.
As to `[BH3-][N+](C)(C)CCOCCOCCOCCOC` [Example 1], in data set [1] (in water), the “water solubility (in words)” value is “very soluble in water”.
